89 compounds from a melting point compilation (Tetko et al.; mined from patent text by program, amines drawn as free bases though some values may be those of a salt) can be followed below.

Molecules are shown by their SMILES.

`CN1CCC(Oc2noc3ccc(Cl)cc23)CC1`: the melting point (usually the temperature of the solid-liquid transition) was in the range of 55 to 56 °C. As for `CCOC(=O)c1c(CC)[nH]c(CC)c1C`, the melting point was in the range of 101 to 103 °C.

Compound `COc1cc2c(c3c1OC(C)(C)C3)C(c1ccccc1)=NC(COC(C)=O)C2` (centres undefined) came in with a melting point of 168 to 169 °C. In the case of `COC1CSC2=C(SC1)C(OC(=O)Oc1ccccc1)N(c1ccc(Cl)cn1)C2=O` (centres undefined), the melting point stood at 167 °C. As for `COc1cc(N)c(Cl)cc1C(=O)NCC1CN(CC2CCN(C(=O)N(C)C)CC2)CCO1` (centres undefined), the melting point fell in the range of 179 to 180 °C.

In turn, `O=C(CC(c1ccc(OC(F)F)c(OCC2CC2)c1)N1C(=O)c2ccccc2C1=O)NO` (centres undefined) showed a melting point of 129 to 131 °C. The compound `O=C1c2cccc3cc4ccccc4c(c23)C(=O)N1CCNCCCNCCN1C(=O)c2cccc3cc4ccccc4c(c23)C1=O` yielded a melting point of 191 °C.

`O=C(O)c1c(SCCO)c(SCCO)c(SCCO)c(SCCO)c1C(O)=NCCO` showed a melting point of 152 to 157 °C.

`CSc1csc2ccc(Br)cc12` showed a melting point of 56 to 57 °C. In the case of `CCOC(=O)c1ncc2[nH]c3ccc(Br)cc3c2c1COC`, the melting point lay in the range of 207 to 209 °C. As for `OC1(c2ccc3c(c2)OCO3)C(c2ccc(Cl)cc2)SC2=NCCCCN21` (centres undefined), the melting point lay within 105 to 107 °C.

With `CCCCCCNC(=O)NCCCCl`, the melting point is 48 to 50 °C. To `COC(=O)Cc1ccc(OCC(C)NCC(O)c2cccc(Cl)c2)c(Cl)c1` (centres undefined) belongs 83 to 103 °C; to `C=CCN1CC(C)N(C(c2ccc(C(=O)N(CC)CC)cc2)c2cccc(O)c2)CC1C` (centres undefined), 170 to 171 °C. In the case of `O=C(NCc1ccncc1)c1cc2ccnc(NCc3ccccc3)c2[nH]1`, the melting point was in the range of 199 to 200 °C. On to `N#CC1=C(C2CC2)Nc2n[nH]cc2C1c1ccccc1Cl` (centres undefined), for which the melting point is greater than 250 °C.

`C[C@@H]1CCCN1CCc1ccc2cc(-c3ccc(=O)[nH]n3)ccc2c1` yielded a melting point of 295 to 298 °C. In turn, `COC(=O)c1cc(C(=O)NNC(=O)c2ccco2)c2cc(Cc3ccc(F)cc3)cnc2c1O` registered a melting point of 207 to 210 °C.

`CC(C)COc1ccc2c(c1)N(C)C(=O)N(c1ccc(Cl)cc1)S2(=O)=O`: the melting point lay in the range of 108 to 110 °C. To `C#Cc1ccc2c(c1)-c1c3c(c4c([nH]c5ccccc54)c1C2)C(=O)NC3` belongs greater than 300 °C.

The compound `COC(=O)c1ncc(C)cc1C(=O)O` returned a melting point of 200 °C. `COc1cc(CO)c2oc(-c3ccc(OC)c(F)c3)cc2c1` registered a melting point of 128 to 130 °C. For the compound `CC(CCC(=O)O)c1ccc2c(c1)C(=O)c1ccccc1CO2` (centres undefined), the melting point is 120 to 124 °C. For the compound `CCN(CC)C(=O)Cc1ccc(O)c(C(C)(C)C)c1`, the melting point was in the range of 124 to 126 °C. The value for `O=C(c1ccc(-c2ccn(C(=O)c3ccc(F)cc3Cl)n2)cc1)N1Cc2cccn2Cc2ccccc21` was 150 to 157 °C. Regarding `CN=C(NC#N)S(C)=O` (centres undefined), the melting point came out at 116 °C. `CCc1[nH]n(C2CCCC2)c2nc(-c3ccnc(C)c3)nc(=O)c1-2` registered a melting point of 258 to 259 °C. The compound `CCSC1(Sc2ccccc2)CCC2C3CCC4=CC(=O)C=CC4(C)C3(F)C(OC(C)=O)CC21C` (centres undefined) came in with a melting point of 145 to 148 °C. On to `CC(C)(C)OC(=O)NC1CCN(C(=O)OCCC2(C(=O)NCC(F)(F)F)c3ccccc3-c3ccccc32)CC1`, for which the melting point lay in the range of 84 to 86 °C. Consider `O=C(NC(=CC(=O)[C@H](Cc1ccccc1)N(Cc1ccccc1)Cc1ccccc1)Cc1ccccc1)c1ccccc1`, for which the melting point is 131 to 133 °C.

As for `OC(CCCc1ccc(Cl)cc1)Cn1ccnc1` (centres undefined), the melting point lay in the range of 84 to 85 °C. In turn, `COC(=O)C1(F)C(=O)N(C)C(=O)NC1O` (centres undefined) showed a melting point of 160 to 161 °C. In the case of `C#CCOc1nc(Nc2cc(N)cc(C(=O)OC)c2)ncc1Br`, the melting point lay within 208 to 209 °C.

As to `CCCC(CCC)(CC(=O)Nc1cccc(OCc2ccc3ccc(F)cc3n2)c1)C(=O)O`, the melting point lay in the range of 155 to 156 °C.

`CSc1nc2c(C)cccc2c2c1CCN2c1ccccc1C` registered a melting point of 111 to 113 °C. As to `CCOC(=O)c1ccc(N)cc1-c1ccc(OC)c(OC)c1`, the melting point amounted to 127 °C. `CCOC(=O)c1[nH]cc(-c2ccc(F)cc2)c1C(C)C`: the melting point lay within 94 to 97 °C. For `CC(C)Nc1cncc(C#N)c1`, the melting point was found to be 82 °C. As for `O=C1C=C(Oc2ccc(-c3ccccc3)cc2)C(O)O1` (centres undefined), the melting point was 192 to 193 °C.

`COc1ccc(S(=O)(=O)C2(C(=O)O)CCN(Cc3ccc(-c4ccccn4)cc3)CC2)cc1` gave a melting point of 217 °C. Compound `CC(C)C(=O)Nc1nc(N)cnc1-c1cc(Cl)cc(Cl)c1Cl` displayed a melting point of 105 to 108 °C. Compound `[N-]=[N+]=N[C@H]1C[C@H](C(=O)Nc2ccc(N3CCOCC3=O)cc2)N(C(=O)Nc2ccc(Cl)cc2)C1` had a melting point of 145 °C.

As to `CC(=O)OC1C(N2CCCC2)CC2C3CCC4CC(O)C(N5CCOCC5)CC4(C)C3CCC21C` (centres undefined), the melting point was in the range of 149 to 153 °C.

As for `CCC(=O)Nc1nc(N[C@H]2c3cc(C)ccc3C[C@@H]2C)nc(C(F)F)n1`, the melting point stood at 66 °C. `Cc1nc(NC(=O)c2ccc(-c3nn[nH]n3)cc2)sc1C(=O)NCc1ccccc1` yielded a melting point greater than 300 °C. The compound `COC(=O)c1ccc(CC(C)NCC(O)c2cc(Cl)c(N)c(Cl)c2)cc1` (centres undefined) gave a melting point of 97 to 115 °C. In turn, `CN1CCOC(CC23CC(c4ccccc42)c2ccccc23)C1` (centres undefined) displayed a melting point of 136 to 137 °C.

`Cc1nn(-c2ccccn2)c2ncc(C(=O)O)c(O)c12`: the melting point was in the range of 248 to 251 °C. The compound `CCOC(=O)C(=C1CCCN1C)c1ccc([N+](=O)[O-])cc1` came in with a melting point of 82 to 83 °C. In the case of `Cc1cc(-n2cc(-c3ccc(F)cc3)nc2C)cc2ccc(=O)[nH]c12`, the melting point was in the range of 289 to 291 °C.

Take `Nc1nc(N)c(-c2cc(Cl)cc(Cl)c2Cl)c(C(Cl)(Cl)Cl)n1`: the melting point fell in the range of 226 to 227 °C. `Cc1nc(Br)sc1NC(=O)OC(C)(C)C` displayed a melting point of 114 to 116 °C. In turn, `CCN(CC)c1ccc(C(O)C#Cc2ccc(C(=O)O)cc2)cc1C(C)C` (centres undefined) showed a melting point of 145 °C. `COC(=O)C(C)c1ccc2cc(OCc3ccc4ccccc4n3)ccc2c1` (centres undefined) displayed a melting point of 91 to 93 °C. With `O=CN(O)CCCP1(=O)ON2CCN(O1)OP(=O)(CCCN(O)C=O)O2` (centres undefined), the melting point fell in the range of 112 to 118 °C. The value for `COc1cc2c3c(c1OC)CCc1ccccc1C3CNC2` (centres undefined) was greater than 250 °C. As for `CC(C)N=C(NC#N)NCCN1CCC(C(=O)c2ccc(F)cc2)CC1`, the melting point is 158 to 160 °C.

The compound `CC(C)c1cccc(C(C)C)c1NC(=O)CN1CCN(CCSc2nc3cccc(S(C)(=O)=O)c3o2)CC1` gave a melting point of 125 to 128 °C.

In turn, `Cn1c(=O)c(=O)[nH]c2cc([N+](=O)[O-])ccc21` came in with a melting point of 356 °C. With `CC1(C)CC(=O)c2cccc(C(=O)O)c2C1`, the melting point lay in the range of 167 to 168 °C.

The compound `CC(c1ccc(-c2ccc(OCc3nc4ccccc4s3)cc2)c(F)c1)N(O)C(N)=O` (centres undefined) displayed a melting point of 185 to 186 °C. In the case of `CCOC(=O)c1c(N2CCC(N(C)C)C2)c2cc(C)ccc2n(Cc2ccccc2)c1=O` (centres undefined), the melting point was greater than 40 °C. Take `COc1ccc2c(c1CC#N)Sc1c(ccc(OC)c1CN1C(=O)c3ccccc3C1=O)N2Cc1ccccc1`: the melting point was 230 °C.

On to `COc1ccc(-c2nc(N3CCN(C)CC3)c3c(C)c(C#N)sc3n2)cc1`, for which the melting point is greater than 250 °C. Turning to `O=C(Nc1ccc(OC(F)(F)F)cc1)N1CC(c2cc(C(F)(F)F)ns2)C(c2ccc(Cl)cc2)=N1` (centres undefined), the melting point lay in the range of 101 to 104 °C. In turn, `CCCCc1nc2c(N)nc(C)c(C)c2n1NC1CCCCC1` registered a melting point of 160 to 162 °C. The compound `CN(SC(Cl)(Cl)Cl)c1nc(C(Cl)(Cl)Cl)ns1` displayed a melting point of 106 °C. On to `COC(=O)COc1ccc(CC2SC(=O)NC2=O)cc1` (centres undefined), for which the melting point lay in the range of 100 to 106 °C. With `Cc1ccccc1SN(C)C(=O)Oc1cccc2c1OC(C)(C)C2`, the melting point amounted to 78 °C.

Regarding `CCn1nc(C)c2c1C1=NCCN1C(C)=N2`, the melting point fell in the range of 168 to 170 °C. `O=CNc1nc(OCOC(=O)C2CCCC2)ncc1F` showed a melting point of 76 to 79 °C. The value for `CCCCCS(=O)(=O)NC(=O)OCc1cc(OC(C)C)nn1Cc1ccc(Cl)cc1Cl` was 126 to 128 °C; that for `CC(=O)Nc1nnc(SCC(O)(Cn2cncn2)c2ccc(Cl)cc2Cl)s1` (centres undefined) was 132 °C; that for `Cc1cc(OC/C=C/c2ccc(F)cc2)c(C)c(C)c1NC=O` was 196 to 198 °C. On to `N[C@@H](CO)C(=O)NCc1ccccc1`, for which the melting point is 76 to 80 °C. Turning to `CN(C)C(N)=Nc1cc(F)ccc1N1CCOCC1`, the melting point was 137 to 138 °C. The compound `COc1ccc(-n2cnc3ccc(-c4nnc(SCc5cccc(C(F)(F)F)c5)o4)cc32)cc1` showed a melting point of 174 to 175 °C. Turning to `Cn1c(C(F)(F)F)cc(=O)n(-c2ccc(Cl)c3nc(N4CCCCC4)sc23)c1=O`, the melting point lay in the range of 102 to 104 °C.

Take `CCCN(CCC)c1nc2cc3c(cc2s1)CC(N)C3` (centres undefined): the melting point lay within 127 to 128 °C. On to `C[C@@H](n1cnc2ccc(Cl)cc2c1=O)[C@](O)(Cn1cncn1)c1ccc(F)cc1F`, for which the melting point lay in the range of 188 to 189 °C. To `N#CNc1nnc(-c2ccc3occ(-c4cccc(OC(F)(F)F)c4)c3c2)o1` belongs 237 to 238 °C; to `CCCCCCCCCCCCNCC(O)CO` (centres undefined), 75 to 76 °C; to `CCCN(CCC)Cc1cnc(-c2ncn3c2[C@@H]2CCN2C(=O)c2ccccc2-3)o1`, 132 to 134 °C.

Compound `CN(CC(O)c1cccc(OCc2ccccc2)c1)C(=O)c1cnc(N(C)C)nc1-c1ccc(Cl)c(Cl)c1` (centres undefined) returned a melting point of 68 to 70 °C. `CCc1cc(C)nc2c(C)ccc(N)c12` returned a melting point of 60 to 62 °C. To `Cc1cnc2cc(-c3cn(C)c4ccccc34)[nH]c2n1` belongs 170 to 175 °C; to `CCn1c(=O)n(OCc2ccccc2)c(=O)c2cc(F)c(N3CCCC3)cc21`, 174 to 176 °C; to `COc1cc(N)c(Cl)cc1C(=O)NCC1CCN(CCCCCC(=O)c2ccc(Cl)cc2Cl)CC1`, 150 to 155 °C. The value for `N#CC(=C1C=CC(=NOC(=O)C(Cl)(Cl)Cl)C=C1)c1ccccc1` was 147 to 148 °C.
